Laboratory results taken from PMC6017107 (Molecules : A Journal of Synthetic Chemistry and Natural …, 2018).
Entries after “also recorded” stand apart in the source; their conditions may differ. Read-outs that look alike come from different tables or passages of the source.

Legend:
mice = conditions: cited from earlier work
[1] = Tissue distribution of phytochemicals after intraperitoneal administration; conditions: mouse, in vivo, ip
Experimental: (§1) Male ICR mice (age: 5–6 weeks old; body weight: 30 ± 2 g) were purchased from Samtako Co. (Osan, Gyeonggi-do, Korea), housed in plastic cages and given free access to a standard animal diet (Daejong, Seoul, Korea) and water. The environment was maintained under the following conditions: temperature, 23 ± 1 °C; 12-h light-dark cycle; and relative humidity, 50% ± 10%. The animals were acclimatized for a minimum period of 1 week and fasted overnight prior to experimentation.
The mice were randomly divided into four groups. Each group was pretreated with either control vehicle (a mixture of DMSO:PEG 400:distilled water; 5:45:50, v/v), piperine (10 mg/kg), capsaicin (5 mg/kg), or [6]-gingerol (5 mg/kg). […] The physiological conditions of the animals were carefully monitored during the study. […]
The IS working solution (20 μL of 100 ng/mL IS solution for plasma and 50 μL of 100 ng/mL IS solution for tissue samples) and acetonitrile (50 μL for plasma and 80 μL for tissue samples) were added to 20 μL of plasma and 50 μL of tissue samples and mixed on a vortex mixer for 1 min. […] Data acquisition was performed with MassHunter Quantitative Analysis (Agilent, Santa Clara, CA, USA).
The pharmacokinetic parameters were determined by non-compartmental analysis using Phoenix® WinNonlin® 6.4 (Certara, L.P., Princeton, NJ, USA). […]

P-gp [2] = conditions: ref [7], cited from earlier work; for Effects on the P-gp mediated transport in vitro: KB-C2; for Increase of accumulation of rhodamine 123: KB-C2 cells
KB-C2 cells = conditions: substrate Vinblastine, ref [7]; cited from earlier work
in vivo [3] = experiment: in vivo
Experimental: as §1
(§2) The mice were randomly divided into four groups. Each group was pretreated with either control vehicle (a mixture of DMSO:PEG 400:distilled water; 5:45:50, v/v), piperine (10 mg/kg), capsaicin (5 mg/kg), or [6]-gingerol (5 mg/kg). The treatment solutions of piperine, capsaicin and [6]-gingerol were prepared by the dissolution of each compound in the DMSO:PEG 400:distilled water mixture at concentrations of 2, 1 and 1 mg/mL, respectively. The treatment solutions were administered intraperitoneally twice with τ = 60 min for control vehicle and piperine and τ = 30 min for capsaicin and [6]-gingerol. […] The physiological conditions of the animals were carefully monitored during the study.
(§3) The volume of injected dosing vehicle was 5 mL/kg. […] Plasma was harvested by centrifugation at 16,000× g for 10 min and immediately stored at −20 °C until analysis. […] All excised tissues were accurately weighed and homogenized (Tissue Tearor, Biospec Products Inc., Bartlesville, OK, USA) with appropriate volumes of isotonic saline. The obtained tissue homogenates were stored at −20 °C until analysis.
(§4) Sample analyses were conducted on an Agilent 6430 triple quadrupole mass spectrometer coupled with an Agilent 1200 HPLC (Agilent, Santa Clara, CA, USA). […] Chromatographic separation was performed using a binary gradient mobile phase composed of acetonitrile (A) and 0.05% formic acid (B) and programmed as follows: initial conditions, 20% A (0.3 mL/min) for 0.1 min and 80% A for 3 min; increased to 90% A in 0.1 min and maintained for 1 min; returned to the initial composition; followed by a 3.2-min equilibration step (1.5 min for 0.3 mL/min and then 1.7 min for 0.5 mL/min). The ESI source was operated in positive mode with curtain and nebulizer gas set at 10 and 20 psi, respectively. The capillary voltage and gas temperature were 4000 V and 300 °C, respectively.
(§5) The IS working solution (20 μL of 100 ng/mL IS solution for plasma and 50 μL of 100 ng/mL IS solution for tissue samples) and acetonitrile (50 μL for plasma and 80 μL for tissue samples) were added to 20 μL of plasma and 50 μL of tissue samples and mixed on a vortex mixer for 1 min. The mixture was then centrifuged at 16,000× g (Biofuge Fresco, Kendro, Osterode, Germany) for 10 min. For tissue samples, 100 μL of the supernatant was re-precipitated with an equal volume of acetonitrile and centrifuged at 16,000× g for 10 min. Finally, 50 μL distilled water was added to 50 μL of each supernatant, followed by mixing and injection of 10 μL of the sample mixture onto the LC-MS/MS. Data acquisition was performed with MassHunter Quantitative Analysis (Agilent, Santa Clara, CA, USA).
(§6) The pharmacokinetic parameters were determined by non-compartmental analysis using Phoenix® WinNonlin® 6.4 (Certara, L.P., Princeton, NJ, USA). As the procedure entailed destructive sampling, the non-compartmental analysis was performed by using the average plasma concentration vs. time data. These parameters included terminal half-life (t1/2), area under the plasma concentration-time curve from time zero to infinity (AUCinf), apparent volume of distribution during the terminal phase (Vz), the volume of distribution at steady state (Vss) and systemic clearance (CL).

P-gp [4] = conditions: cited from earlier work; for IC50: Caco-2 cells
[5] = cited from earlier work
in vivo [6] = conditions: for Increase of the Kp of doxorubicin in the kidney by pretreatment, comparing with control: 2 h after administration; for Increase of the Kp of doxorubicin in the liver by pretreatment: mice (matches 2 h values of Table 4)
Experimental: as §1, §2, §3, §4, §5, §6

[7] = Plasma pharmacokinetics of doxorubicin i.v. in mice pretreated with phytochemical P-gp modulators; conditions: male, ICR, mouse, in vivo, iv, 1 mg/kg, i.v. 1 mg/kg; for C0: C0 of doxorubicin; for clearance: CL of doxorubicin; for half-life: t1/2 of doxorubicin
Experimental: as §1, §2, §3, §4, §5, §6

Caco-2 cells = conditions: ref [6]; cited from earlier work
[8] = system: MCF-7/DOX, A-549/DDP cells; conditions: ref [30], cited from earlier work
P-gp, MRP1 and BCRP = conditions: ref [30], cited from earlier work
ABC transporter genes = conditions: MCF-7/DOX, A-549/DDP; ref [30]; cited from earlier work
[9] = male, ICR, mouse, in vivo, ip, 5 mg/kg
[10] = A-549/DDP, substrate Doxorubicin
[11] = male, ICR, mouse, in vivo, ip, 10 mg/kg

In the case of CCCCC[C@H](O)CC(=O)CCc1ccc(O)c(OC)c1 [[6]-Gingerol], the LD50 (mice; mouse, in vivo, ip) is listed as 58.1 mg/kg, the “Detection in brain, heart and testis” value [1] is listed as “not detected” and the “Effects on the P-gp mediated transport in vitro” value (P-gp [2]; substrate Daunorubicin) is listed as “Increased cellular accumulation”. The “Effects on the P-gp mediated transport in vitro” value (P-gp [2]; substrate Rhodamine 123) was “Inhibited efflux transport”, the “Increase of accumulation of rhodamine 123” value (P-gp [2]; in the presence of [6]-gingerol) was 2.24 fold and the “Effects on the P-gp mediated transport in vitro” value (KB-C2 cells) was “Increased vinblastine cytotoxicity by inhibition of efflux transporter”. For the same molecule, the AUC(0-inf) (in vivo [3]; [9]) was 66.3 ng·h/mL, the CL/F (in vivo [3]; [9]) was 1260 mL/min/kg and the Cmax (in vivo [3]; [9]) was 153 ng/mL. The Detection in plasma (in vivo [3]; [9]) was “not detected 2–4 h after administration”, the Tmax (in vivo [3]; [9]) was 0.17 h and the Vd/F (in vivo [3]; [9]) was 148 L/kg. The half-life (in vivo [3]; [9]) was 1.36 h, the “Effects on the P-gp mediated transport in vitro” value (P-gp [4]; Caco-2, L-MDR1, substrate [3H] Digoxin, ref [8]) was “Inhibited P-gp mediated efflux transport” and the “Effects on the P-gp mediated transport in vitro” value (P-gp [4]; Caco-2, L-MDR1, substrate [3H] Digoxin, ref [8], listed as [6]-gingerol) was “inhibited P-gp-mediated digoxin transport”.
For COc1cccc2c1C(=O)c1c(O)c3c(c(O)c1C2=O)C[C@@](O)(C(=O)CO)C[C@@H]3O[C@H]1C[C@H](N)[C@H](O)[C@H](C)O1 [Doxorubicin], the “Injected doxorubicin excreted in bile” value ([5]; bile duct-cannulated rats, ref [45]) is given as 33–35%, the “Injected doxorubicin eliminated via urine” value ([5]; bladder-cannulated rats, ref [45]) is given as 4–8% and the “Initial dose appearing in the bile as unchanged doxorubicin” value ([5]; rats, within 3 h, ref [43]) is given as “approximately 30%”. It also gave a Kp (in vivo [6]; male, ICR, mouse, in vivo, iv, 1 mg/kg, Doxorubicin Kp values) of over 35.4, a C0 ([7]; pretreatment Capsaicin) of 4430 ng/mL and a C0 ([7]; pretreatment Control) of 3980 ng/mL. The C0 ([7]; pretreatment Piperine) was 3400 ng/mL, the C0 ([7]; pretreatment [6]-Gingerol) was 4040 ng/mL and the clearance ([7]; pretreatment Capsaicin) was 25.2 mL/min/kg. For the same molecule, the clearance ([7]; pretreatment Control) was 31 mL/min/kg, the clearance ([7]; pretreatment Piperine) was 25.6 mL/min/kg and the clearance ([7]; pretreatment [6]-Gingerol) was 28.8 mL/min/kg. It also gave a half-life ([7]; pretreatment Capsaicin) of 13.3 h, a half-life ([7]; pretreatment Control) of 17.4 h and a half-life ([7]; pretreatment Piperine) of 15.7 h. It also gave a half-life ([7]; pretreatment [6]-Gingerol) of 15.5 h.
In the case of COc1cc(CNC(=O)CCCC/C=C/C(C)C)ccc1O [Capsaicin], the LD50 (mice; i.p., mice, ref [57],[58]) is listed as 7.6 mg/kg, the “Increase of the Kp of doxorubicin in the brain by pretreatment” value (in vivo [6]; brain, 2 h, mice) is listed as 3.33 fold and the “Increase of the Kp of doxorubicin in the kidney by pretreatment, comparing with control” value (in vivo [6]; mice) is listed as 1.95 fold. The “Increase of the Kp of doxorubicin in the liver by pretreatment” value (in vivo [6]) was 6.21 fold, the “Effects on the P-gp mediated transport in vitro” value (P-gp [2]; substrate Daunorubicin) was “Increased cellular accumulation” and the “Effects on the P-gp mediated transport in vitro” value (P-gp [2]; substrate Rhodamine 123) was “Inhibited efflux transport”. For the same molecule, the “Increase of accumulation of rhodamine 123” value (P-gp [2]; 50 μmol/L capsaicin) was 4 fold, the “Effects on the P-gp mediated transport in vitro” value (KB-C2 cells) was “Increased vinblastine cytotoxicity by inhibition of efflux transporter” and the Detection in plasma (in vivo [3]; i.p. 5 mg/kg, mice, plasma) was “not detected 2–4 h after administration”. For the same molecule, the AUC(0-inf) (in vivo [3]; [9]) was 66.8 ng·h/mL, the CL/F (in vivo [3]; [9]) was 1250 mL/min/kg and the Cmax (in vivo [3]; [9]) was 119 ng/mL. The Tmax (in vivo [3]; [9]) was 0.17 h, the Vd/F (in vivo [3]; [9]) was 35.7 L/kg and the half-life (in vivo [3]; [9]) was 0.33 h. For the same molecule, the “Effects on the P-gp mediated transport in vitro” value (P-gp [4]; Caco-2, substrate [3H] Digoxin, ref [6]) was “inhibited digoxin efflux mediated by P-gp; also recorded: Inhibited P-gp mediated efflux transport” and the Cytotoxicity (Caco-2 cells) was “no resulting cytotoxicity”.
For O=C(/C=C/C=C/c1ccc2c(c1)OCO2)N1CCCCC1 [Piperine], the LD50 (mice; mouse, in vivo, ip) is listed as 60 mg/kg, the Kp at 2 h ([1]; male, ICR, 10 mg/kg) is listed as 1.69 ± 0.28 and the “Effects on the P-gp mediated transport in vitro” value [8, 10] is listed as “Increased cytotoxicity by reversing transporter mediated doxorubicin and mitoxantrone resistance”. The “Effects on the P-gp mediated transport in vitro” value ([8]; substrate Mitoxantrone) was “Increased cytotoxicity by reversing transporter mediated doxorubicin and mitoxantrone resistance”, the “Increase of the Kp of doxorubicin in the kidney by pretreatment, comparing with control” value (in vivo [6]; mice) was 2.23 fold and the “Increase of the Kp of doxorubicin in the liver by pretreatment” value (in vivo [6]) was 5.44 fold. For the same molecule, the “Effects on the P-gp mediated transport in vitro” value (P-gp, MRP1 and BCRP; [10]) was “Inhibited efflux activity of P-gp, MRP1 and BCRP”, the “Effects on the P-gp mediated transport in vitro” value (P-gp, MRP1 and BCRP; MCF-7/DOX, substrates Rhodamine 123, Mitoxantrone) was “Inhibited efflux activity of P-gp, MRP1 and BCRP” and the “Effects on the P-gp mediated transport in vitro” value (ABC transporter genes) was “Inhibited transcription of the corresponding ABC transporter genes”. The AUC(0-inf) (in vivo [3]; [11]) was 9960 ng·h/mL, the CL/F (in vivo [3]; [11]) was 16.7 mL/min/kg and the Cmax (in vivo [3]; [11]) was 5050 ng/mL. It also gave a Tmax (in vivo [3]; [11]) of 0.75 h, a Vd/F (in vivo [3]; [11]) of 9.12 L/kg and a half-life (in vivo [3]; [11]) of 6.3 h. For the same molecule, the “Effects on the P-gp mediated transport in vitro” value (P-gp [4]; Caco-2, L-MDR1, substrate [3H] Digoxin, ref [5]) was “Inhibited P-gp mediated efflux transport”, the “Effects on the P-gp mediated transport in vitro” value (P-gp [4]; Caco-2, substrates Digoxin, Cyclosporin A, ref [4]) was “Inhibited P-gp mediated efflux transport” and the IC50 (P-gp [4]; cyclosporine A, ref [4], read-out: IC50, inhibition of transport of P-gp substrate cyclosporine A) was 74.1 µM. The IC50 (P-gp [4]; digoxin, ref [4], read-out: IC50, inhibition of transport of P-gp substrate digoxin) was 15.5 µM.
